{"source": "patent US8952024B2", "about": "“Herbicidal pyrimidone derivatives” (E I du Pont de Nemours and Company, priority 2009, dated 2015)", "format_in_all_cases": "in vivo", "key": {"[1]": {"test_system": "cocklebur (Xanthium strumarium)", "experiment": "Test B pre-/postemergence plant response", "conditions": "for Plant response rating, Cocklebur: Postemergence", "in_short": "(§1)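 Ratings reflect visual comparison with untreated controls 13 to 15 days after application, from 0 (no effect) to 100 (complete control). Application was preemergence to seeded loam/sand soil or postemergence to 1- to 4-leaf plants, with compound in a non-phytotoxic, surfactant-containing solvent.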"}, "[2]": {"test_system": "green foxtail (Setaria viridis)", "experiment": "Test B pre-/postemergence plant response", "conditions": "for Plant response rating, Foxtail, Green: Postemergence", "in_short": "as §1"}, "[3]": {"test_system": "ragweed (common ragweed, Ambrosia elatior)", "experiment": "Test B pre-/postemergence plant response", "conditions": "for Plant response rating, Ragweed: Postemergence", "in_short": "as §1"}, "[4]": {"test_system": "giant foxtail (Setaria faberii)", "experiment": "Test B pre-/postemergence plant response", "conditions": "for Plant response rating, Foxtail, Giant: Postemergence", "in_short": "as §1"}, "[5]": {"test_system": "johnsongrass (Sorghum halepense)", "experiment": "Test B pre-/postemergence plant response", "conditions": "for Plant response rating, Johnsongrass: Postemergence", "in_short": "as §1"}, "[6]": {"test_system": "lambsquarters (Chenopodium album)", "experiment": "Test B pre-/postemergence plant response", "conditions": "for Plant response rating, Lambsquarters: Postemergence", "in_short": "as §1"}, "[7]": {"test_system": "wild oat (Avena fatua)", "experiment": "Test B pre-/postemergence plant response", "conditions": "for Plant response rating, Oat, Wild: Postemergence", "in_short": "as §1"}, "[8]": {"test_system": "pigweed (Amaranthus retroflexus)", "experiment": "Test B pre-/postemergence plant response", "conditions": "for Plant response rating, Pigweed: Postemergence", "in_short": "as §1"}, "[9]": {"test_system": "soybean (Glycine max)", "experiment": "Test B pre-/postemergence plant response", "conditions": "for Plant response rating, Soybean: Postemergence", "in_short": "as §1"}, "[10]": {"test_system": "corn (Zea mays)", "experiment": "Test B pre-/postemergence plant response", "conditions": "for Plant response rating, Corn: Postemergence", "in_short": "as §1"}, "[11]": {"test_system": "bermudagrass (Cynodon dactylon)", "experiment": "Test B pre-/postemergence plant response", "conditions": "for Plant response rating, Bermudagrass: Postemergence", "in_short": "as §1"}, "[12]": {"test_system": "kochia (Kochia scoparia)", "experiment": "Test B pre-/postemergence plant response", "conditions": "for Plant response rating, Kochia: Postemergence", "in_short": "as §1"}, "[13]": {"test_system": "barnyardgrass (Echinochloa crus-galli)", "experiment": "Test B flooded paddy test", "conditions": "for Plant response rating, Barnyardgrass: Flood (flooded paddy test), 13 to 15 days", "in_short": "(§2)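 Visual scores run from 0 (no effect) to 100 (complete control), assigned by comparison with controls 13 to 15 days after treatment. Test compounds went straight into water standing 3 cm above the soil, around plants at the 2-leaf stage kept in a greenhouse.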"}, "[14]": {"test_system": "ducksalad (Heteranthera limosa)", "experiment": "Test B flooded paddy test", "conditions": "for Plant response rating, Ducksalad: Flood (flooded paddy test), 13 to 15 days", "in_short": "as §2"}, "[15]": {"test_system": "umbrella sedge (Cyperus difformis)", "experiment": "Test B flooded paddy test", "conditions": "for Plant response rating, Sedge, Umbrella: Flood (flooded paddy test), 13 to 15 days", "in_short": "as §2"}, "[16]": {"test_system": "rice (Oryza sativa)", "experiment": "Test B flooded paddy test", "conditions": "for Plant response rating, Rice: Flood (flooded paddy test), 13 to 15 days", "in_short": "as §2"}, "[17]": {"conditions": "62 g ai/ha, postemergence, 0 is no effect, 100 is complete control, 13 to 15 days"}, "[18]": {"conditions": "31 g ai/ha, 0 to 100 scale (0 no effect, 100 complete control)"}, "[19]": {"conditions": "125 g ai/ha, scale 0 to 100 (0 no effect, 100 complete control)"}, "[20]": {"conditions": "250 g ai/ha, scale 0 to 100 (0 no effect, 100 complete control), 13 to 15 days"}, "[21]": {"conditions": "250 g ai/ha, flooded paddy test, visual rating on 0 to 100 scale (0 no effect, 100 complete control) after 13 to 15 days"}, "[22]": {"conditions": "62 g ai/ha, scale of 0 to 100 where 0 is no effect and 100 is complete control"}, "[23]": {"conditions": "125 g ai/ha, scale 0 to 100, 0 is no effect, 100 is complete control"}, "[24]": {"conditions": "Flood, 31 g ai/ha, scale 0 to 100 (0 no effect, 100 complete control)"}}, "data": [{"smiles": "O=C1CCCC(O)=C1C(=O)c1cnc(-c2ccccc2)n(C2CCCCCC2)c1=O", "note": "[Compound 130]", "values": [{"measurement": "Cocklebur plant response rating (0 to 100 scale)", "setting": "[1]; [17]", "value": 95}, {"measurement": "Plant response rating, Cocklebur", "setting": "[1]; [18]", "value": 85}, {"measurement": "Plant response rating, Cocklebur", "setting": "[1]; [19]", "value": 95}, {"measurement": "Plant response rating, Cocklebur", "setting": "[1]; [20]", "value": 100}, {"measurement": "Foxtail, Green plant response rating (0 to 100 scale)", "setting": "[2]; [17]", "value": 90}, {"measurement": "Plant response rating, Foxtail, Green", "setting": "[2]; [18]", "value": 90}, {"measurement": "Plant response rating, Foxtail, Green", "setting": "[2]; [19]", "value": 95}, {"measurement": "Plant response rating, Foxtail, Green", "setting": "[2]; [20]", "value": 98}, {"measurement": "Ragweed plant response rating (0 to 100 scale)", "setting": "[3]; [17]", "value": 90}, {"measurement": "Plant response rating, Ragweed", "setting": "[3]; [18]", "value": 85}, {"measurement": "Plant response rating, Ragweed", "setting": "[3]; [19]", "value": 98}, {"measurement": "Plant response rating, Ragweed", "setting": "[3]; [20]", "value": 98}, {"measurement": "Foxtail, Giant plant response rating (0 to 100 scale)", "setting": "[4]; [17]", "value": 90}, {"measurement": "Plant response rating, Foxtail, Giant", "setting": "[4]; [18]", "value": 90}, {"measurement": "Plant response rating, Foxtail, Giant", "setting": "[4]; [19]", "value": 98}, {"measurement": "Plant response rating, Foxtail, Giant", "setting": "[4]; [20]", "value": 98}, {"measurement": "Johnsongrass plant response rating (0 to 100 scale)", "setting": "[5]; [17]", "value": 60}, {"measurement": "Plant response rating, Johnsongrass", "setting": "[5]; [18]", "value": 60}, {"measurement": "Plant response rating, Johnsongrass", "setting": "[5]; [19]", "value": 80}, {"measurement": "Plant response rating, Johnsongrass", "setting": "[5]; [20]", "value": 80}, {"measurement": "Lambsquarters plant response rating (0 to 100 scale)", "setting": "[6]; [17]", "value": 100}, {"measurement": "Plant response rating, Lambsquarters", "setting": "[6]; [18]", "value": 98}, {"measurement": "Plant response rating, Lambsquarters", "setting": "[6]; [19]", "value": 100}, {"measurement": "Plant response rating, Lambsquarters", "setting": "[6]; [20]", "value": 100}, {"measurement": "Oat, Wild plant response rating (0 to 100 scale)", "setting": "[7]; [17]", "value": 30}, {"measurement": "Plant response rating, Oat, Wild", "setting": "[7]; [18]", "value": 20}, {"measurement": "Plant response rating, Oat, Wild", "setting": "[7]; [19]", "value": 40}, {"measurement": "Plant response rating, Oat, Wild", "setting": "[7]; [20]", "value": 60}, {"measurement": "Pigweed plant response rating (0 to 100 scale)", "setting": "[8]; [17]", "value": 98}, {"measurement": "Plant response rating, Pigweed", "setting": "[8]; [18]", "value": 95}, {"measurement": "Plant response rating, Pigweed", "setting": "[8]; [19]", "value": 100}, {"measurement": "Plant response rating, Pigweed", "setting": "[8]; [20]", "value": 100}, {"measurement": "Soybean plant response rating (0 to 100 scale)", "setting": "[9]; [17]", "value": 98}, {"measurement": "Plant response rating, Soybean", "setting": "[9]; [18]", "value": 98}, {"measurement": "Plant response rating, Soybean", "setting": "[9]; [19]", "value": 98}, {"measurement": "Plant response rating, Soybean", "setting": "[9]; [20]", "value": 100}, {"measurement": "Corn plant response rating (0 to 100 scale)", "setting": "[10]; [17]", "value": 60}, {"measurement": "Plant response rating, Corn", "setting": "[10]; [18]", "value": 55}, {"measurement": "Plant response rating, Corn", "setting": "[10]; [19]", "value": 80}, {"measurement": "Plant response rating, Corn", "setting": "[10]; [20]", "value": 80}, {"measurement": "Bermudagrass plant response rating (0 to 100 scale)", "setting": "[11]; [17]", "value": 90}, {"measurement": "Plant response rating, Bermudagrass", "setting": "[11]; [18]", "value": 75}, {"measurement": "Plant response rating, Bermudagrass", "setting": "[11]; [19]", "value": 90}, {"measurement": "Plant response rating, Bermudagrass", "setting": "[11]; [20]", "value": 95}, {"measurement": "Kochia plant response rating (0 to 100 scale)", "setting": "[12]; [17]", "value": 85}, {"measurement": "Plant response rating, Kochia", "setting": "[12]; [18]", "value": 85}, {"measurement": "Plant response rating, Kochia", "setting": "[12]; [19]", "value": 100}, {"measurement": "Plant response rating, Kochia", "setting": "[12]; [20]", "value": 100}, {"measurement": "Plant response rating, Flood, Barnyardgrass", "setting": "[13]; [21]", "value": 85}, {"measurement": "Plant response rating, Barnyardgrass", "setting": "[13]; [22]", "value": 0}, {"measurement": "Plant response rating, Barnyardgrass", "setting": "[13]; [23]", "value": 0}, {"measurement": "Barnyardgrass plant response rating", "setting": "[13]; [24]", "value": 0}, {"measurement": "Plant response rating, Flood, Ducksalad", "setting": "[14]; [21]", "value": 100}, {"measurement": "Plant response rating, Ducksalad", "setting": "[14]; [22]", "value": 80}, {"measurement": "Plant response rating, Ducksalad", "setting": "[14]; [23]", "value": 80}, {"measurement": "Ducksalad plant response rating", "setting": "[14]; [24]", "value": 60}, {"measurement": "Plant response rating, Flood, Sedge, Umbrella", "setting": "[15]; [21]", "value": 100}, {"measurement": "Plant response rating, Sedge, Umbrella", "setting": "[15]; [22]", "value": 60}, {"measurement": "Plant response rating, Sedge, Umbrella", "setting": "[15]; [23]", "value": 75}, {"measurement": "Sedge, Umbrella plant response rating", "setting": "[15]; [24]", "value": 40}, {"measurement": "Plant response rating, Flood, Rice", "setting": "[16]; [21]", "value": 25}, {"measurement": "Plant response rating, Rice", "setting": "[16]; [22]", "value": 0}, {"measurement": "Plant response rating, Rice", "setting": "[16]; [23]", "value": 0}, {"measurement": "Rice plant response rating", "setting": "[16]; [24]", "value": 0}]}]}
